Data taken from US10640527B2, “Mesitylene-cored amphiphiles and uses thereof” (Industry-University Cooperation Foundation Hanyang …, priority 2016, dated 2020).

Columns and labels:
[1] = Critical micelle concentration by fluorophore encapsulation using diphenylhexatriene (DPH); format: physicochemical; conditions: aqueous solution
Experimental: A method of measuring a CMC is not particularly limited, and those methods widely known in the related field may be used. For example, a CMC may be measured by a fluorophore encapsulation method using diphenylhexatriene (DPH).
(§1) Specifically, a CMC was measured by a fluorophorescent encapsulation method using diphenylhexatriene (DPH) and an Rh of a micelle formed by each formulation (1.0 wt %) was measured using a dynamic light scattering (DLS) experiment.

[2] = Hydrodynamic radius / size distribution of micelles by dynamic light scattering (DLS); format: physicochemical; conditions: 1.0 wt % amphiphile
Experimental: A method of measuring a radius of the micelle is not particularly limited, and those methods widely known in the related field may be used, for example, a dynamic light scattering (DLS) experiment may be used for measurement.
as §1

[3] = target: T1, uric acid-xanthine/H+ symporter (UapA) (Emericella nidulans, UniProt Q07307, G411V); assay: UapA structural (thermal) stability, CPM assay; format: biochemical, Aspergillus nidulans; conditions: for effect in maintaining folded UapA, ranking among MGAs: CMC+0.2 wt %, 40° C., 120 minutes
T1 construct: GFP; made in house; host or cells: Saccharomyces cerevisiae FGY217
Experimental: An experiment for measuring the structural stability of uric acid-xanthine/H^+ symporter (UapA) solubilized in MGAs in an aqueous solution was performed. The structural stability of UapA was measured using a CPM assay, and was measured at MGAs and DDM concentrations of (a) CMC+0.04 wt %, or (b) CMC+0.2 wt %.
Specifically, a UapA protein is a uric acid-xanthine/H^+ symporter in Aspergillus nidulans. Protein stability was measured by fluorescence spectroscopy using N-[4-(7-diethylamino-4-methyl-3-coumarinyl)phenyl]maleimide (CPM) which is a sulfhydryl-specific fluorophore. A free sulfhydryl group of a cysteine residue is in the interior of a protein, but becomes accessible to a solvent upon protein unfolding. CPM becomes fluorescent by a reaction with the free thiol, and thus provides as a protein unfolding sensor. In order to measure thermal stability, first, UapAG411V1-11 was expressed in the Saccharomyces cerevisiae FGY217 strain by fusion with GFP, and separated in a sample buffer (20 mM Tris (pH 7.5), 150 mM NaCl, 0.03% DDM and 1 mM xanthine) according to a method described in a research article (Mol. Membr. Biol. 2013, 30, 32-42) by J. Leung et al. A UapA protein was concentrated to about 10 mg/ml using a 100 kDa molecular weight cut-off filter (Millipore). The concentrated protein was diluted to a ratio of 1:150 with each buffer including DDM or MGA (MGA-C10, MGA-C11, MGA-C12, MGA-C13, MGA-C14 or MGA-C15) at a concentration of CMC+0.04 wt % or CMC+0.2 wt % in a Greiner 96-well plate. A CPM dye (Invitrogen) stored in DMSO (Sigma) was diluted with a dye buffer (20 mM Tris (pH 7.5), 150 mM NaCl, 0.03% DDM and 5 mM EDTA), and 3 μl of the diluted dye was added to each protein sample. The reaction mixture was incubated at 40° C. for 120 minutes. Fluorescence emission was monitored using a microplate spectrofluorometer, with an excitation wavelength at 387 nm and an emission wavelength at 463 nm. Relative maximum fluorescence was used to calculate a percentage of relative folded protein remaining after 120 minutes at 40° C. Relative unfolded proteins were plotted against time using GraphPad Prism.
Specifically, a UapA stabilization effect was evaluated by the same method as in Experimental Example 2 using MGA-C13, MGA-C14, MNG-3 or DDM at a concentration of (a) CMC+0.04 wt % or (b) CMC+0.2 wt %.

[4] = target: T2, melibiose permease (MelBSt) (Salmonella typhimurium, UniProt P30878); assay: MelBSt extraction from membranes and thermal stability, SDS-PAGE and Western blotting; format: biochemical; conditions: 1.5 wt %, 90 minutes
T2 construct: made in house; host or cells: DW2 cells (ΔmelB and ΔlacZY), Salmonella typhimurium DW2
Experimental: An experiment for measuring the structural stability of Salmonella typhimurium melibiose permease (MelBSt) according to MGAs in an aqueous solution was performed. After MelBSt proteins were extracted from a membrane using MGAs or DDM, the amount and structure of extracted proteins were analyzed by SDS-PAGE and western blotting. The concentration of used amphiphiles was 1.5 wt %, and proteins were extracted at four different temperatures of 0, 45, 55 and 65° C. to evaluate both the protein extraction efficiency and stabilizing ability of a compound. A membrane sample which had not been treated with MGAs or DDM was used as a control group.
Specifically, MelBSt stability solubilized in DDM or MGAs was evaluated according to a method described in 2010 in a research article (P. S. Chae et al., Nat. Methods 2010, 7, 1003-1008.) by the inventors of the present invention. Proteins (MelBSt) were produced using plasmid pK95ΔAHB/WT MelBSt/CH10 encoding the wild-type MelB with a 6-His tag at the C-terminus and Salmonella typhimurium DW2 cells (ΔmelB and ΔlacZY). Cell growth and membrane preparation was performed according to a method described in a research article (Nat. Commun. 2014, 5, 3009) by A. S. Ethayathulla, et al. A protein assay was carried out using a Micro BCA kit (Thermo Scientific, Rockford, Ill.). In order to measure protein solubilization, a membrane sample (final protein concentration was 10 mg/mL) containing MelBSt was incubated with a solubilization buffer (20 mM sodium phosphate, pH 7.5, 200 mM NaCl, 10% glycerol and 20 mM melibiose) and 1.5% (w/v) DDM or MGA (MGA-C10, MGA-C11, MGA-C12, MGA-C13, MGA-C14 or MGA-C15) at four different temperatures of 0, 45, 55 and 65° C. for 90 minutes. After ultracentrifugation at 355,590 g in a Beckman Optima™ MAX Ultracentrifuge using a TLA-100 rotor for 45 min at 4° C., 20 μg of a protein was separated by SDS-16% PAGE and immunoblotted with a Penta-His-HRP antibody (Qiagen, Germantown, Md.). MelBSt was measured by an ImageQuant LAS 4000 Biomolecular Imager (GE Healthcare Life Sciences) using a SuperSignal West Pico chemiluminescent substrate.

[5] = test system: leucine transporter (LeuT); assay: LeuT long-term stability, [3H]-Leu binding by scintillation proximity assay (SPA); format: biochemical, Aquifex aeolicus
Experimental: An experiment for measuring the structural stability of LeuT proteins according to MGAs (MGA-C11, MGA-C12, MGA-C13, MGA-C14 and MGA-C15) was performed. Each amphiphile was used at a concentration of (a) CMC+0.04 wt % or (b) CMC+0.2 wt %, a ligand-binding activity of LeuT was measured by scintillation proximity assay (SPA) using [^3H]-Leucine. The measurement was performed at regular intervals at room temperature during 12 days of incubation.
Specifically, a thermophilic bacteria Aquifex aeolicus-derived wild type LeuT was purified using a previously described method (Nature, G. Deckert et al., 1998, 392, 353-358). To sum up, the LeuT was expressed in E. coli C41 (DE3) cultured in a lysogeny broth medium supplemented with 0.1 mg/ml ampicillin. Expression of proteins was induced by adding isopropyl β-D-thiogalactopyranoside to a final concentration of 0.1 mM.
A cell membrane was separated from a crushed cell (Constant Systems Homogenizers, Kennesaw, Ga.), and solubilized in 1% (w/v) n-dodecyl-β-D-maltopyranoside (DDM; Affymetrix, Santa Clara, Calif.). After solubilization, LeuT was fixed in a Ni^2+-NTA resin (Life Technologies, Denmark), and eluted in 20 mM Tris-HCl (pH 7.5), 199 mM KCl, 1 mM NaCl, 0.05% (w/v) DDM and 300 mM imidazole. Thereafter, purified LeuT (about 1.5 mg/ml) was diluted tenfold with a buffer supplemented with MGA (MGA-C11, MGA-C12, MGA-C13, MGA-C14 or MGA-C15) or DDM to the final concentration of CMC+0.04% (w/v) or CMC+0.2% (w/v) while excluding DDM and imidazole from the above-described buffers. Protein samples were stored at room temperature for 12 days, and protein activity was determined by measuring [^3H]-Leu binding by SPA at a specified time. SPA was carried out using 450 mM NaCl and buffers containing each MGA, and a SPA reaction was performed in the presence of 20 nM [^3H]-Leu and 1.25 mg/ml copper chelate (His-Tag) YSi beads (Perkin Elmer, Denmark). [^3H]-Leu binding was measured using a MicroBeta liquid scintillation counter (Perkin Elmer).

T1 sequence (Q07307 12-574 G411V): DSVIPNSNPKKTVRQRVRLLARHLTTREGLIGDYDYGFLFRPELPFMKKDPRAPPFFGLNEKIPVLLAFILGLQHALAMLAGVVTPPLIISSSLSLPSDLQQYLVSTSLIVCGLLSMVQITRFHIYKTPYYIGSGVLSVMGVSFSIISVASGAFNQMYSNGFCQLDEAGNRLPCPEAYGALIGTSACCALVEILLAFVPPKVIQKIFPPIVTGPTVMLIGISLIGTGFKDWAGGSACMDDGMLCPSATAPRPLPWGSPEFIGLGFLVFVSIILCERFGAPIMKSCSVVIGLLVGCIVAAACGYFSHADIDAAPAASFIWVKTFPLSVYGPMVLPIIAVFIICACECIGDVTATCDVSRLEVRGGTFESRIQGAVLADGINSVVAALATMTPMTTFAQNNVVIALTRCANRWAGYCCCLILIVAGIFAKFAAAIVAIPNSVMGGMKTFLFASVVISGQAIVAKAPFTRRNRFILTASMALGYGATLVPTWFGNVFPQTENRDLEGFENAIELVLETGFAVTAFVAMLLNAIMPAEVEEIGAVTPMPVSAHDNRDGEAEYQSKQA
T2 sequence (P30878 whole entry): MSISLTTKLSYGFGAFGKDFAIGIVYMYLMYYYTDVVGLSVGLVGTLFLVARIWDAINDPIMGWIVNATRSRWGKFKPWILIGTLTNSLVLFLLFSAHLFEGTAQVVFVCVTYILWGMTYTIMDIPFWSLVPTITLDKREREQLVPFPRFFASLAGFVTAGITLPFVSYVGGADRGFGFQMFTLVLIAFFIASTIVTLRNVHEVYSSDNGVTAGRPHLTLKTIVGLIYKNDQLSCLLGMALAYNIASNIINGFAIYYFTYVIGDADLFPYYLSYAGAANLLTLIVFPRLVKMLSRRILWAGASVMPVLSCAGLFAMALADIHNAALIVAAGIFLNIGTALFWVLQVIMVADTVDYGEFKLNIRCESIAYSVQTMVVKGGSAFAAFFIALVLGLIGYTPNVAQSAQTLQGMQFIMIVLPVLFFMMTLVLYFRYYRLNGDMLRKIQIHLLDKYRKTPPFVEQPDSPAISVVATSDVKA

SMILES | CMC [1] | CMC (wt %) [1] | Rh (nm), hydrodynamic radius of micelle [2] | effect in maintaining folded UapA, ranking among MGAs [3] | UapA stabilization effect compared with MNG-3 ([3]; CMC+0.04 wt % or CMC+0.2 wt %, FIG. 25) | MelBSt protein extraction efficiency compared with DDM ([4]; 45° C.) | MelBSt extraction ability compared with DDM ([4]; 55° C.) | preservation of long-term stability of LeuT, comparison with DDM and ranking ([5]; 12 days at room temperature, CMC+0.04 wt % or CMC+0.2 wt %) | LeuT ligand-binding activity retained, % of initial activity ([5]; after 12 days of incubation at room temperature)
CCCCCCCCCCC(CO[C@@H]1OC(CO)[C@@H](O)C(O)C1O)(CO[C@@H]1OC(CO)[C@@H](O)C(O)C1O)Cc1cc(CC(CCCCCCCCCC)(CO[C@@H]2OC(CO)[C@@H](O)C(O)C2O)CO[C@@H]2OC(CO)[C@@H](O)C(O)C2O)cc(CC(CCCCCCCCCC)(CO[C@@H]2OC(CO)[C@@H](O)C(O)C2O)CO[C@@H]2OC(CO)[C@@H](O)C(O)C2O)c1 (stereo partly drawn) [MGA-C10] | ~8 µM | ~0.0014 wt % | 2.9 ± 0.01 nm | less effective than the above-described MGAs, but still higher than DDM |  |  |  |  | 
CCCCCCCCCCCCCCC(CO[C@@H]1OC(CO)[C@@H](O)C(O)C1O)(CO[C@@H]1OC(CO)[C@@H](O)C(O)C1O)Cc1cc(CC(CCCCCCCCCCCCCC)(CO[C@@H]2OC(CO)[C@@H](O)C(O)C2O)CO[C@@H]2OC(CO)[C@@H](O)C(O)C2O)cc(CC(CCCCCCCCCCCCCC)(CO[C@@H]2OC(CO)[C@@H](O)C(O)C2O)CO[C@@H]2OC(CO)[C@@H](O)C(O)C2O)c1 (stereo partly drawn) [MGA-C14] | ~2 µM | ~0.0004 wt % | 3.4 ± 0.04 nm | had the highest effect | far greater UapA stabilization effect than MNG-3 | same level of protein extraction efficiency as DDM | higher MelBSt extraction ability than DDM |  | 
CCCCCCCCCCCC(CO[C@@H]1OC(CO)[C@@H](O)C(O)C1O)(CO[C@@H]1OC(CO)[C@@H](O)C(O)C1O)Cc1cc(CC(CCCCCCCCCCC)(CO[C@@H]2OC(CO)[C@@H](O)C(O)C2O)CO[C@@H]2OC(CO)[C@@H](O)C(O)C2O)cc(CC(CCCCCCCCCCC)(CO[C@@H]2OC(CO)[C@@H](O)C(O)C2O)CO[C@@H]2OC(CO)[C@@H](O)C(O)C2O)c1 (stereo partly drawn) [MGA-C11] | ~5 µM | ~0.009 wt % | 3.0 ± 0.04 nm | less effective than the above-described MGAs, but still higher than DDM |  |  |  | the most excellent MGA | ~90%
CCCCCCCCCCCCC(CO[C@@H]1OC(CO)[C@@H](O)C(O)C1O)(CO[C@@H]1OC(CO)[C@@H](O)C(O)C1O)Cc1cc(CC(CCCCCCCCCCCC)(CO[C@@H]2OC(CO)[C@@H](O)C(O)C2O)CO[C@@H]2OC(CO)[C@@H](O)C(O)C2O)cc(CC(CCCCCCCCCCCC)(CO[C@@H]2OC(CO)[C@@H](O)C(O)C2O)CO[C@@H]2OC(CO)[C@@H](O)C(O)C2O)c1 (stereo partly drawn) [MGA-C12] | ~3.5 µM | ~0.0006 wt % | 3.1 ± 0.03 nm | less effective than the above-described MGAs, but still higher than DDM |  |  |  |  | 
